Measured values reported in ChEMBL document CHEMBL6096638, “Design, synthesis and biological evaluation of novel TMPRSS2-PROTACs with florosubstituted 4-guanidino-N-phenylbenzamide derivative ligands” (Bioorg Med Chem, 2024).
Calls of active or inactive are those of the source. The rule behind the calls is not given here.

Experiments:
[1] = biological target: von Hippel-Lindau disease tumor suppressor/Transmembrane protease serine 2 (Homo sapiens) (UniProt O15393+P40337); experiment: PROTAC activity at VHL/TMPRSS2 in human HT-29 cells assessed as induction of TMPRSS2 degradation at 2.5 uM incubated for 24 hrs by Western blotting analysis; format: cell-based
Chain of von Hippel-Lindau disease tumor suppressor/Transmembrane protease serine 2 (Homo sapiens) (O15393 whole entry, looked up): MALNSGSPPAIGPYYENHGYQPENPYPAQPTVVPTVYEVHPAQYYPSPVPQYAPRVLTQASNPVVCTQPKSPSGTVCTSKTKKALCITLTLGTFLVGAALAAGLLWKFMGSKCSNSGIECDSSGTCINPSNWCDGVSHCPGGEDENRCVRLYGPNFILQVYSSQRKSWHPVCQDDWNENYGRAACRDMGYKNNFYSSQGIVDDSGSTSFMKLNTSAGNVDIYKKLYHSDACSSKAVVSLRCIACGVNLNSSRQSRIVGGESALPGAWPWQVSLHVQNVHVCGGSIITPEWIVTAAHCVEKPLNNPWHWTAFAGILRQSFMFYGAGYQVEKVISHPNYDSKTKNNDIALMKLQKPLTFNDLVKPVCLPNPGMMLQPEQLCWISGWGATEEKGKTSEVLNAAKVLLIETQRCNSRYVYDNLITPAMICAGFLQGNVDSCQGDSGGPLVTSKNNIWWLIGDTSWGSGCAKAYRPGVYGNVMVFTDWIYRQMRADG
Chain of von Hippel-Lindau disease tumor suppressor/Transmembrane protease serine 2 (Homo sapiens) (P40337 whole entry, looked up): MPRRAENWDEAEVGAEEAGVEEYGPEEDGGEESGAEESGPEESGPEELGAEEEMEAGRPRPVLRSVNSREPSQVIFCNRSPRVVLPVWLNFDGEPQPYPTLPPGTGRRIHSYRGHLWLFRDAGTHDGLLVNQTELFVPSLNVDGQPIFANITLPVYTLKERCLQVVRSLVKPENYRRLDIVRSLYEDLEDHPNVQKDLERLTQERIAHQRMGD

Calu-3 [2] = experiment: Antiproliferative activity against human Calu-3 cells assessed as inhibition of cell growth at 20 uM incubated for 48 hrs by CCK-8 assay relative to control; format: functional
HT-29 [3] = experiment: Antiproliferative activity against human HT-29 cells assessed as inhibition of cell growth at 20 uM incubated for 48 hrs by CCK-8 assay relative to control; format: functional
DU-145 [4] = experiment: Antiproliferative activity against human DU-145 cells assessed as inhibition of cell growth at 20 uM incubated for 48 hrs by CCK-8 assay relative to control; format: functional
HT-29 [5] = experiment: Induction of apoptosis in human HT-29 cells assessed as viable cells at 0.2 uM incubated for 48 hrs by Annexin V-FITC/PI staining based flow cytometric analysis (reference value: 90.4 %); format: functional; conditions: read-out: Activity
HT-29 [6] = experiment: Induction of apoptosis in human HT-29 cells assessed as early apoptotic cells at 0.2 uM incubated for 48 hrs by Annexin V-FITC/PI staining based flow cytometric analysis (reference value: 1.22 %); format: functional
HT-29 [7] = experiment: Induction of apoptosis in human HT-29 cells assessed as late apoptotic cells at 0.2 uM incubated for 48 hrs by Annexin V-FITC/PI staining based flow cytometric analysis (reference value: 5.87 %); format: functional
HT-29 [8] = experiment: Induction of apoptosis in human HT-29 cells assessed as necrotic cells at 0.2 uM incubated for 48 hrs by Annexin V-FITC/PI staining based flow cytometric analysis (reference value: 2.48 %); format: functional
HT-29 [9] = experiment: Induction of apoptosis in human HT-29 cells assessed as viable cells at 0.4 uM incubated for 48 hrs by Annexin V-FITC/PI staining based flow cytometric analysis (reference value: 90.4 %); format: functional; conditions: read-out: Activity
HT-29 [10] = experiment: Induction of apoptosis in human HT-29 cells assessed as early apoptotic cells at 0.4 uM incubated for 48 hrs by Annexin V-FITC/PI staining based flow cytometric analysis (reference value: 1.22 %); format: functional
HT-29 [11] = experiment: Induction of apoptosis in human HT-29 cells assessed as late apoptotic cells at 0.4 uM incubated for 48 hrs by Annexin V-FITC/PI staining based flow cytometric analysis (reference value: 5.87 %); format: functional
HT-29 [12] = experiment: Induction of apoptosis in human HT-29 cells assessed as necrotic cells at 0.4 uM incubated for 48 hrs by Annexin V-FITC/PI staining based flow cytometric analysis (reference value: 2.48 %); format: functional
HT-29 [13] = experiment: Induction of apoptosis in human HT-29 cells assessed as viable cells at 0.8 uM incubated for 48 hrs by Annexin V-FITC/PI staining based flow cytometric analysis (reference value: 90.4 %); format: functional; conditions: read-out: Activity
HT-29 [14] = experiment: Induction of apoptosis in human HT-29 cells assessed as early apoptotic cells at 0.8 uM incubated for 48 hrs by Annexin V-FITC/PI staining based flow cytometric analysis (reference value: 1.22 %); format: functional
HT-29 [15] = experiment: Induction of apoptosis in human HT-29 cells assessed as late apoptotic cells at 0.8 uM incubated for 48 hrs by Annexin V-FITC/PI staining based flow cytometric analysis (reference value: 5.87 %); format: functional
HT-29 [16] = experiment: Induction of apoptosis in human HT-29 cells assessed as necrotic cells at 0.8 uM incubated for 48 hrs by Annexin V-FITC/PI staining based flow cytometric analysis (reference value: 2.48 %); format: functional
HT-29 [17] = experiment: Induction of cell cycle arrest in human HT-29 cells assessed as accumulation of cells at G2 phase at 0.8 uM incubated for 36 hrs by PI-staining based flow cytometry; format: functional
HT-29 [18] = experiment: Inhibition of colony formation in human HT-29 cells incubated for 24 hrs by crystal violet staining based analysis; format: functional, cell-based; conditions: dose 0.1-0.4 µM
HT-29 [19] = experiment: Inhibition of cell migration in human HT-29 cells at 0.2 to 0.8 uM incubated for 48 hrs by wound healing assay; format: functional, cell-based; conditions: dose 0.2-0.8 µM
DU-145 [20] = experiment: Antiproliferative activity against human DU-145 cells assessed as inhibition of cell growth incubated for 48 hrs by CCK-8 assay; format: functional, cell-based; conditions: DU-145, 48 h
HepG2 = experiment: Antiproliferative activity against human HepG2 cells assessed as inhibition of cell growth incubated for 48 hrs by CCK-8 assay; format: functional, cell-based; conditions: HepG2, 48 h
HT-29 [21] = experiment: Antiproliferative activity against human HT-29 cells assessed as inhibition of cell growth incubated for 48 hrs by CCK-8 assay; format: functional, cell-based; conditions: HT-29, 48 h
Calu-3 [22] = experiment: Antiproliferative activity against human Calu-3 cells assessed as inhibition of cell growth incubated for 48 hrs by CCK-8 assay; format: functional, cell-based; conditions: Calu-3, 48 h
A549 = experiment: Antiproliferative activity against human A549 cells assessed as inhibition of cell growth incubated for 48 hrs by CCK-8 assay; format: functional, cell-based; conditions: A549, 48 h
MDA-MB-231 = experiment: Antiproliferative activity against human MDA-MB-231 cells assessed as inhibition of cell growth incubated for 48 hrs by CCK-8 assay; format: functional, cell-based; conditions: MDA-MB-231, 48 h
AGS = experiment: Antiproliferative activity against human AGS cells assessed as inhibition of cell growth incubated for 48 hrs by CCK-8 assay; format: functional, cell-based
PC-3 = experiment: Antiproliferative activity against human PC-3 cells assessed as inhibition of cell growth incubated for 48 hrs by CCK-8 assay; format: functional, cell-based; conditions: PC-3, 48 h
MRC5 = experiment: Antiproliferative activity against human MRC5 cells assessed as inhibition of cell growth incubated for 48 hrs by CCK-8 assay; format: functional, cell-based; conditions: MRC5, 48 h
SK-N-AS = experiment: Antiproliferative activity against human SK-N-AS cells assessed as inhibition of cell growth incubated for 48 hrs by CCK-8 assay; format: functional, cell-based
A-375 = experiment: Antiproliferative activity against human A-375 cells assessed as inhibition of cell growth incubated for 48 hrs by CCK-8 assay; format: functional, cell-based; conditions: A-375, 48 h
786-0 = experiment: Antiproliferative activity against human 786-0 cells assessed as inhibition of cell growth incubated for 48 hrs by CCK-8 assay; format: functional, cell-based; conditions: 786-0, 48 h
NCI-H1299 = experiment: Antiproliferative activity against human NCI-H1299 cells assessed as inhibition of cell growth incubated for 48 hrs by CCK-8 assay; format: functional, cell-based; conditions: NCI-H1299, 48 h
SH-SY5Y = experiment: Antiproliferative activity against human SH-SY5Y cells assessed as inhibition of cell growth incubated for 48 hrs by CCK-8 assay; format: functional, cell-based
K562 = experiment: Antiproliferative activity against human K562 cells assessed as inhibition of cell growth incubated for 48 hrs by CCK-8 assay; format: functional, cell-based; conditions: K562, 48 h
MCF7 = experiment: Antiproliferative activity against human MCF7 cells assessed as inhibition of cell growth incubated for 48 hrs by CCK-8 assay; format: functional, cell-based; conditions: MCF7, 48 h
CWR22R = experiment: Antiproliferative activity against human 22Rv1 cells assessed as inhibition of cell growth incubated for 48 hrs by CCK-8 assay; format: functional, cell-based; conditions: 22Rv1, 48 h
VCaP = experiment: Antiproliferative activity against human VCaP cells assessed as inhibition of cell growth incubated for 48 hrs by CCK-8 assay; format: functional, cell-based

- Activity [1]: Active
- IC50 (DU-145 [20]): 5.26 µM
- IC50 (HepG2): 8.73 µM
- IC50 (HT-29 [21]): 0.39 µM
- IC50 (Calu-3 [22]): 1.62 µM
- IC50 (A549): 12.3 µM
- IC50 (MDA-MB-231): 10.7 µM
- IC50 (AGS): 14.9 µM
- IC50 (PC-3): 24.5 µM
- IC50 (SK-N-AS): 6.91 µM
- IC50 (A-375): 9.63 µM
- IC50 (786-0): 34.8 µM
- IC50 (NCI-H1299): > 40 µM
- IC50 (SH-SY5Y): 18 µM
- IC50 (K562): 9.01 µM
- IC50 (MCF7): 13.3 µM
- IC50 (VCaP): 7.57 µM
Structure (SMILES): Cc1ncsc1-c1ccc([C@H](C)NC(=O)[C@@H]2C[C@@H](O)CN2C(=O)[C@@H](NC(=O)CN2CCC(CN3CCN(c4ccc(NC(=O)c5cc(F)c(NC(=N)N)cc5F)cc4)CC3)CC2)C(C)(C)C)cc1.Cl
- inhibition at 20 µM (Calu-3 [2]): 96.1%
- inhibition at 20 µM (HT-29 [3]): 94.6%
- inhibition at 20 µM (DU-145 [4]): 74.6%
- viability at 0.2 µM (HT-29 [5]): 78.8%
- Activity (HT-29 [6]): 1.58%
- Activity (HT-29 [7]): 13%
- Activity (HT-29 [8]): 6.59%
- viability at 0.4 µM (HT-29 [9]): 80.4%
- Activity (HT-29 [10]): 3.74%
- Activity (HT-29 [11]): 11.6%
- Activity (HT-29 [12]): 4.21%
- viability at 0.8 µM (HT-29 [13]): 58.5%
- Activity (HT-29 [14]): 15.3%
- Activity (HT-29 [15]): 23.2%
- Activity (HT-29 [16]): 3.01%
- Activity (HT-29 [17]): Active
- inhibition (HT-29 [18]): Dose-dependent-effect
- Activity (HT-29 [19]): Active
- IC50 (MRC5): > 40 µM
- IC50 (CWR22R): 20 µM
